Measurements from patent US20200371122A1, “BIOMARKER FOR SENESCENT CELLS” (Buck Institute for Research on Aging, priority 2017, published 2020).

Experiments:
[1] = tested on: IL-6 secretion in senescent cells; test: IL-6 ELISA on conditioned media of IR-induced senescent cells treated with COX-2/ALOX5 inhibitors; format: cell-based, human; conditions: SEN(IR) IMR-90, inhibitor for 10 days
Experimental: (§1) Human fetal lung fibroblasts (IMR-90) were cultured in Dulbecco's modified eagle medium (DMEM) supplemented with 10% FBS and penicillin/streptomycin. LL 29 (AnHa) cells were obtained from the ATCC and growth to confluence using the ATCC protocol, but were subcultured as described for IMR-90 before initiation of all experiments. Quiescence was induced by replacing culture media with media containing 0.2% FBS. MCF-7 and MDA-MB-231 breast cancer cells were cultured in RPMI supplemented with 10% FBS and penicillin/streptomycin. All cells were cultured at 3% O2, and used between 25 and 40 population doublings. All cells were mycoplasma free.
Senescence was induced by irradiation with 10 Gy of ionizing radiation. Non-senescent controls (proliferating or quiescent) were placed in the irradiator for an identical period of time without turning on the irradiator. Oncogene-induced senescence was induced via lentiviral overexpression of HRAS^V12, as described previously (Wiley et al. (2016) Cell Metab. 23: 303-314).
3×10^4 cells in 12-well plates were treated as indicated in the text, and cultured in 0.5-1 ml serum-free DMEM for 24 hr. CM were collected and clarified at 2,000×g for 10 min. Supernatants were transferred to a tube; cells were trypsinized and counted. CM (2.5 μl) were analyzed by bead-based ELISAs (AlphaLISA, Perkin-Elmer) as instructed by the manufacturer and normalized to cell number.

IMR-90 fibroblasts = format: cell-based, human
Experimental: as §1
RNA was extracted from cells or tissues using commercially available kits (Isolate II—Bioline for cells; Direct-zol—Zymo for tissues) according to the manufacturer's instructions. cDNA synthesis was performed using a High Capacity cDNA Reverse Transcription Kit (Thermo Fisher) according to the manufacturer's instructions. Quantitative PCR was performed on a LightCycler 480 II (Roche) using primers and probes designed for the Universal Probe Library. Primers and probes used for human transcripts were ACTB: 5′-CCAACCGCGAGAAGATGA (SEQ ID NO:1), 5′-TCCATCACGATGCCAGTG (SEQ ID NO:2), Probe #64; TUBA: 5′-cttcgtctccgccatcag (SEQ ID NO:3), 5′-ttgccaatctggacacca (SEQ ID NO:4), Probe #58; ALOX5: 5′-[…] (SEQ ID NO:5), 5′-[…] (SEQ ID NO:6), Probe #64; ALOX5AP: 5′-ggtctgcggggctacttt (SEQ ID NO:7), 5′-[…] (SEQ ID NO:8), Probe #18; ALOX12: 5′-[…] (SEQ ID NO:9), 5′-agccaggtcgtcaggag (SEQ ID NO:10), Probe #32; ALOX15: 5′-[…] (SEQ ID NO:11), 5′-[…] (SEQ ID NO:12), Probe #76; ALOX15B: 5′-[…] (SEQ ID NO:13), 5′-actgggaggcgaagaagg (SEQ ID NO:14), Probe #51; AKR1C1: 5′-catgcctgtcctgggattt (SEQ ID NO:15), 5′-[…] (SEQ ID NO:16), Probe #49; AKR1C2: 5′-ctatgcgcctgcagaggt (SEQ ID NO:17), 5′-[…] (SEQ ID NO:18), Probe #31; AKR1C3: 5′-[…] (SEQ ID NO:19), 5′-[…] (SEQ ID NO:20), Probe #78; CYSLTR2: 5′-[…] (SEQ ID NO:21), 5′-[…] (SEQ ID NO:22), Probe #18; DPEP1: 5′-gacgtcctgaggctggtg (SEQ ID NO:23), 5′-[…] (SEQ ID NO:24), Probe #9 (SEQ ID NO:25), ELOVL2: 5′-[…] (SEQ ID NO:26), 5′-[…] (SEQ ID NO:27), Probe #53; ELOVL4: 5′-catttggcccatggattc (SEQ ID NO:28), 5′-[…] (SEQ ID NO:29), Probe #31; ELOVL5: 5′-cccttccatgcgtccata (SEQ ID NO:30), 5′-[…] (SEQ ID NO:31), Probe #31; EPHX2: 5′-ttctgctggacaccctgaa (SEQ ID NO:32), 5′-[…] (SEQ ID NO:33), Probe #45; GPX4: 5′-ttcccgtgtaaccagttcg (SEQ ID NO:34), 5′-[…] (SEQ ID NO:35), Probe #36; LTA4H: 5′-ctgctctcacggtccagtc (SEQ ID NO:36), 5′-[…] (SEQ ID NO:37), Probe #64; LTBR2: 5′-[…] (SEQ ID NO:38), 5′-[…] (SEQ ID NO:39), Probe #33; LTC4S: 5′-[…] (SEQ ID NO:40), 5′-[…] (SEQ ID NO:41), Probe #18; PTGDS: 5′-[…] (SEQ ID NO:42), 5′-[…] (SEQ ID NO:43), Probe #36; PTGES: 5′-agagatgcctgcccacag (SEQ ID NO:44), 5′-tggccaccacgtacatctt (SEQ ID NO:45), Probe #4; PTGES2: 5′-[…] (SEQ ID NO:46), 5′-[…] (SEQ ID NO:47), Probe #49; PTGES3 (SEQ ID NO:48), 5′-[…] (SEQ ID NO:49), 5′-[…] (SEQ ID NO:50), Probe #48; PTGIS: 5′-[…] (SEQ ID NO:51), 5′-[…] (SEQ ID NO:52), Probe #45; PTGR1: 5′-atgatggggcagcaagtg (SEQ ID NO:53), 5′-cccatcagaaatggagtgc (SEQ ID NO:54), Probe #64; PTGS1: 5′-[…] (SEQ ID NO:55), 5′-gtggtggtccatgttcctg (SEQ ID NO:56), Probe #81; PTGS2: 5′-gatccccagggctcaaac (SEQ ID NO:57), 5′-[…] (SEQ ID NO:58), Probe #61; TBXAS1: 5′-[…] (SEQ ID NO:59), 5′-tgcctcccgtgtgaatct (SEQ ID NO:60), Probe #73; AREG: 5′-[…] (SEQ ID NO:61), 5′-[…] (SEQ ID NO:62), Probe #73; CCL2: 5′-AGTCTCTGCCGCCCTTCT (SEQ ID NO:63), 5′-GTGACTGGGGCATTGATTG (SEQ ID NO:64), Probe #40; CCL27: 5′-[…] (SEQ ID NO:65), 5′-gctgggtggcagtaggaat (SEQ ID NO:66), Probe #18; CXCL1: 5′-[…] (SEQ ID NO:67), 5′-[…] (SEQ ID NO:68), Probe #52; HGF: 5′-[…] (SEQ ID NO:69), 5′-[…]

SMILES: CS(=O)(=O)c1ccc(-c2noc(C(F)(F)F)c2-c2ccccc2)cc1 [CAY-10404]
- lowered IL-6 secretion in senescent cells [1]: ~70%
- number of cells following irradiation (IMR-90 fibroblasts; 5 Gy IR, 10 days): significantly increased
- cell number relative to DMSO-treated SEN(IR) cells (IMR-90 fibroblasts; SEN(IR) cells counted for IL-6 ELISA normalization): increase in cell number
